Measured values reported in patent US10471059B2, “Compositions and methods of using tyrosine kinase inhibitors” (YALE UNIVERSITY, priority 2015, dated 2019).
“Also recorded” adds a separate entry of the source.

Assays:
tumor incidence = settings: mice; cited from earlier work
Ptpn11^D61G/+ mice = assay: Growth, facial dysmorphia and splenomegaly after postnatal dasatinib; format: in vivo; settings: postnatal 0.1 mg/kg/day, NS mice
Text: Differences within treatment groups were significant (p<0.001, Two-way ANOVA test) from 3-weeks to 8-weeks old. FIG. 19b is a graph showing body weight measured at P42. FIG. 19c is a graph showing body length measured at P42. FIG. 19d is a graph showing body weight measured at P56. […]. FIG. 19e is a graph showing body length measured at P56.
(n=10˜16 for each group; Two-way ANOVA test).
All data represent mean±SEM. *, p<0.05; ***, p<0.001.
(§1) Vehicle-injected mice served as control.

[1] = test system: cardiomyocytes isolated from the heart of WT and Ptpn11^D61G/+ mice; assay: Ca2+ excitation-contraction coupling of cardiomyocytes isolated from treated mice; format: in vivo
Experimental: as §1
Enzymatic Digestion of Cardiac Tissue for Single-Cell Analysis—Cardiomyocytes from 8 week old mice were isolated by a Langendorff procedure, modified from Xianghua Xu, et al. J Vis Exp. 2009; (28):1308. In brief, the hearts were quickly excised and cannulated to a Langendorff apparatus where they were perfused with 37° C. Ca^2+-free perfusion buffer (in 25 mM HEPES, 118 mM NaCl, 4.8 mM KCl, 2.0 mM KH2PO4, 2.55 mM MgSO4, 10 mM BDM and 10 mM Glucose). To digest the tissue, the heart was perfused with buffer containing 0.5 mg/mL Liberase TH (Roche Applied Science, Penzberg, Germany). After ˜10 min, the heart was removed from the Langendorff apparatus and the right ventricle and atria removed. The left ventricle was isolated, cut into small pieces and digested further at 37° C. digestion solution with mechanical agitation for 5-10 min, and then gently triturated to liberate individual cells. The remaining tissue chunks were transferred to fresh digestion buffer and the process was repeated up to 6 times, or until all tissue was digested. Cells were removed from collagenase by gentle centrifugation and resuspended in several washing steps of buffer containing FBS and gradually reintroduced to calcium (0.05-1.1 mM) through step-wise additions of concentrated CaCl2 solution. Cells were allowed to rest for at least 1 h before imaging.
Cardiomyocyte Functional Characterization—Cardiomyocytes were imaged in Tyrodes solution ([…] NaCl: 140, KCl: 5.4, CaCl2:1.8, MgCl2:1, HEPES: 25 mM, glucose: 10 mM). Cell pellets were loaded for 15 minutes in the dark with Tyrodes supplemented with 2.5 μM Fura-2 AM complimented with pluronic acid (20% w/v), for calcium fluorescence imaging. After 15 minutes of loading, the cells were resuspended in fresh Tyrodes solution and allowed to settle until imaging. Cardiomyocyte Ca^2+ transients and unloaded shortening contractions were measured using an inverted microscope (Nikon Eclipse, Chiyoda, Tokyo) equipped with a temperature controlled perfusion bath (Cell MicroControls, Norfolk, Va.) under constant perfusion of 37° C. Tyrodes solution. Cells were field-stimulated at 1 Hz. Contractile events were imaged in real-time using a sarcomere length camera system (HVSL, Aurora Scientific, Ontario, Canada). Only rod-shaped cells with well-defined sarcomere striations that contracted when stimulated were selected for measurement. Sarcomere length was measured and recorded for ten consecutive beats and subsequently averaged across beats to produce a single waveform. Calcium transient measurements were recorded simultaneously using alternating excitation wavelengths of 340 and 380 nm generated at an overall rate of 100 Hz by a RatioMaster fluorescence system (PTI, Birmingham, N.J.). Fluorescence emission was filtered at a center wavelength of 510 nm and quantified to obtain responses to the alternating excitation wavelengths (F340 and F380, respectively). Ca^2+ transients were reported as the interpolated ratio of the two fluorescence intensities (F340/F380) at each time point. Data were recorded using a DAP5216a data acquisition system (Microstar Laboratories, Bellevue, Wash.) and processed using custom software written in MATLAB (MathWorks, Natick, Mass.). Peak sarcomere length shortening (Peak SL shortening), time to peak shortening (TTP), time to 50% re-lengthening (RT50), the magnitude of the calcium transient (Ca^2+ Rmag:Max F340/F380−Min F340/F380) and the rate of calcium decay, Tau (TauCa2+) were computed.

[2] = postnatal dasatinib, Ptpn11D61G/+ mice, P56, n = 162 cells, n = 3 mice, Mean ± SEM
[3] = postnatal dasatinib, WT mice, P56, n = 111 cells, n = 3 mice, Mean ± SEM

Cc1nc(Nc2ncc(C(=O)Nc3c(C)cccc3Cl)s2)cc(N2CCN(CCO)CC2)n1.O [Dasatinib, N-(2-chloro-6-methylphenyl)-2-[[6-[4-(2-hydroxyethyl)-1-piperazinyl]-2-methyl-4-pyrimidinyl]amino]-5-thiazole carboxamide monohydrate]
dosage effective in preventing tumor incidence (tumor incidence): ~20 mg/kg | growth (body weight, body length) (Ptpn11^D61G/+ mice): did not improve | facial dismorphism (Ptpn11^D61G/+ mice; monohydrate): did not improve | splenomegaly (Ptpn11^D61G/+ mice; monohydrate): did not improve; also recorded: did not rescue | Ca2+ signaling during excitation-contraction coupling ([1]; cardiomyocytes from dasatinib treated Ptpn11D61G/+ mice): normal | difference in relative calcium release (Rmag Ca2+) between NS and wild type cardiomyocytes ([1]; postnatal dasatinib, NS mice): substantially ameliorated | differences in fractional shortening of sarcomeres between NS and wild type cardiomyocytes ([1]; postnatal dasatinib, NS mice): completely restored | Ca^2+ TTP (Time to peak, F340/380) [1, 2]: 43.22 ± 0.90 ms | Diastolic Ca^2+ (MinF340/380) [1, 2]: 0.98 ± 0.01 | Peak Shortening [1, 2]: 6.59 ± 0.18 % | Rmag Ca^2+ (ΔF340/380) [1, 2]: 0.14 ± 0.01 | Shortening RT50 (Time from peak tension to 50% relaxation) [1, 2]: 37.02 ± 0.62 ms | Shortening RT90 (Time from peak tension to 90% relaxation) [1, 2]: 99.24 ± 3.23 ms | Shortening TTP (Time to peak) [1, 2]: 69.32 ± 0.79 ms | Systolic Ca^2+ (Max F340/380) [1, 2]: 1.12 ± 0.01 | Tau Ca^2+ [1, 2]: 116.52 ± 2.36 ms | Ca^2+ TTP (Time to peak, F340/380) [1, 3]: 42.75 ± 1.21 ms | Diastolic Ca^2+ (MinF340/380) [1, 3]: 0.94 ± 0.01 | Peak Shortening [1, 3]: 6.04 ± 0.23 % | Rmag Ca^2+ (ΔF340/380) [1, 3]: 0.11 ± 0.01 | Shortening RT50 (Time from peak tension to 50% relaxation) [1, 3]: 41.11 ± 0.96 ms | Shortening TTP (Time to peak) [1, 3]: 71.52 ± 0.90 ms | Systolic Ca^2+ (Max F340/380) [1, 3]: 1.06 ± 0.01 | Tau Ca^2+ [1, 3]: 105.85 ± 2.35 ms
